Laboratory results reported in patent US20250288645A1, “USE OF GsMTx4 AND GsMTx4 CONJUGATES TO IMPROVE RECOVERY FROM JOINT INJURY” (priority 2023, published 2025).
No end group written: not given here.

Tested on: C57Bl/6 male mice
Test: Massive rotator cuff tear (RCT) mouse model: humeral head cartilage histology
Format: in vivo
Procedure: A massive rotator cuff tear (RCT) model was performed by surgical ligation of the supraspinatus and infraspinatus tendons of the right shoulder of 14-week-old C57Bl/6 male and female mice through a deltoid splitting approach. Mice were anesthetized with 2% isoflurane gas mixed with oxygen. A single dose of buprenorphine SR (0.5 mg/kg) was injected subcutaneously at the nape. The right shoulder was prepped using a chemical hair removal agent, followed by betadine solution for 2 minutes and a rinse with 70% ethanol. The remaining steps were performed under sterile technique. A #11 scalpel blade was used to sharply incise the skin and subcutaneous tissues in a longitudinal incision over the palpable border of the lateral shoulder. The deltoid fascia and muscle were sharply incised in line with the skin incision with care not to dissect distally along the humerus to protect the axillary nerve. A pair of forceps were then used to grasp the proximal humerus and pull laterally to place the glenohumeral joint on gentle tension. A 25G needle was passed under the supraspinatus and infraspinatus tendons. […] Animals were monitored daily for 3 days post-operatively, and no adverse events were noted. […]
Humeri were harvested and chondrocyte mechano-vulnerability was quantified before and after 2 mJ impact according to methods above. […]

GsMTx4 (GCLEFWWKCNPNDDKCCRPKLKCSKLFKLCNFSF-NH2; ends and bridges not checked; listed as Grammostola spatulata)
average humeral head cartilage thickness (RC ligation, subcutaneous twice weekly, 14 weeks post-operatively, GsMTx4 versus saline or contralateral control joint): no difference in average humeral head cartilage thickness | cartilage degeneration of shoulder (RCT, treated post-injury, versus animals not treated post-injury with GsMTx4): reduced cartilage degeneration
